Source: patent US20240132431A1, “METHOD FOR ALKYLATING ACIDIC FUNCTIONAL GROUP” (Chugai Seiyaku Kabushiki Kaisha, priority 2021, published 2024)
Each block holds one compound with its values, some of them ahead of it.

Molecular target: T1, Bcl-2 protein (Recombinant Human Bcl-2 Protein) (Homo sapiens, UniProt P10415)
T1 construct: purchased Novus NBP2-34889
Test: Binding evaluation of mixture library compounds to Bcl-2 using AS-MS (affinity selection mass spectrometry)
Settings: for ASMS ratio (%) n = 1: replicate n = 1; for ASMS ratio (%) n = 1 / ASMS ratio (%) n = 2: ASMS Ratio(%)=(A−C)/B×100; for ASMS ratio (%) n = 2: replicate n = 2
Summary of the method: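 Affinity selection MS: Bcl-2 20 μM + 1200-cpd mixture, […]/cpd, Tris pH 7.4 buffer w/ Tween-20, DTT; 1 h 23° C dark; P-2 spin SEC; MeCN/MeOH extraction; RP LC/MS. ASMS Ratio(%) = (A−C)/B×100.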

[1] = AS-MS, mixture of 1200 compounds, Bcl-2
[2] = AS-MS on the mixture of 1200 library compounds

T1 sequence (P10415 whole entry): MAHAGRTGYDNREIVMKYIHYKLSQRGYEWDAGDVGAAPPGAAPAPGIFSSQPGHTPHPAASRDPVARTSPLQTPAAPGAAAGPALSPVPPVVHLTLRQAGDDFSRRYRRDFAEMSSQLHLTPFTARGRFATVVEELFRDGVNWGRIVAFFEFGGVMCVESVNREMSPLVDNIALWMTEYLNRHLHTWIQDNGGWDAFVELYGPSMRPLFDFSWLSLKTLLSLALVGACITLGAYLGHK

ASMS ratio (%) (n = 1): 0.0% | ASMS ratio (%) (n = 2): 0.0%
Compound: CCOc1cncc(-c2ccccc2CN2CCN(c3ccc(C(=O)NS(=O)(=O)C(C)(C)C)cc3)CC2)c1 [B2L046-01, N-tert-Butylsulfonyl-4-[4-[[2-(5-ethoxypyridin-3-yl)phenyl]methyl]piperazin-1-yl]benzamide]

ASMS ratio (%) n = 1 (AS-MS, mixture library, Bcl-2): 14.4% | ASMS ratio (%) n = 2 (AS-MS, mixture library, Bcl-2): 9.4%
Compound: CCOc1cccc(-c2cnn(-c3cc(C(=O)N4CCN(c5ccc(C(=O)NS(=O)(=O)CC67CC8CC(CC(C8)C6)C7)nn5)CC4)cc(C(F)(F)F)c3)c2)c1 [B2A021-01, N-(1-Adamantylmethylsulfonyl)-6-[4-[3-[4-(3-ethoxyphenyl)pyrazol-1-yl]-5-(trifluoromethyl)benzoyl]piperazin-1-yl]pyridazine-3-carboxamide]

ASMS ratio (%) (n = 1): 0.0% | ASMS ratio (%) (n = 2): 0.0%
Compound: CCOc1cccc(-c2cc(OC)c(CN3CCN(c4ccc(C(=O)NS(=O)(=O)C(C)(C)C)cc4)CC3)c(OC)c2)c1 [B2L059-01, N-tert-Butylsulfonyl-4-[4-[[4-(3-ethoxyphenyl)-2,6-dimethoxyphenyl]methyl]piperazin-1-yl]benzamide]

ASMS ratio (%) n = 1 [1]: 5.4% | ASMS ratio (%) n = 2 [1]: 5.4%
Compound: CCOc1cccc(-c2cc(C(=O)N3CCN(c4ccc(C(=O)NCC56CC7CC(CC(C7)C5)C6)nn4)CC3)cc(C(F)(F)F)c2)c1 [B1A017-01, N-(1-Adamantylmethyl)-6-[4-[3-(3-ethoxyphenyl)-5-(trifluoromethyl)benzoyl]piperazin-1-yl]pyridazine-3-carboxamide]

ASMS ratio (%) (n = 1): 0.0% | ASMS ratio (%) (n = 2): −1.5%
Compound: CCOc1cncc(-c2ccc(CN3CCN(c4ccc(C(=O)NS(C)(=O)=O)cc4)CC3)c(CC)c2)c1 [B2I050-01, 4-[4-[[4-(5-Ethoxypyridin-3-yl)-2-ethylphenyl]methyl]piperazin-1-yl]-N-methylsulfonylbenzamide]

ASMS ratio (%) n = 1 (AS-MS, mixture library, Bcl-2): 0.0% | ASMS ratio (%) n = 2 (AS-MS, mixture library, Bcl-2): 0.3%
Compound: CCOc1cccc(C#Cc2cncc(C(=O)N3CCN(c4ccc(C(=O)NS(=O)(=O)CC56CC7CC(CC(C7)C5)C6)cc4)CC3)c2)c1 [B2A031-01, N-(1-Adamantylmethylsulfonyl)-4-[4-[5-[2-(3-ethoxyphenyl)ethynyl]pyridine-3-carbonyl]piperazin-1-yl]benzamide]

ASMS ratio (%) n = 1 (AS-MS, mixture library, Bcl-2): 17.5% | ASMS ratio (%) n = 2 (AS-MS, mixture library, Bcl-2): 4.4%
Compound: CCOc1cccc(-c2cc(CN3CCN(c4ccc(C(=O)NS(=O)(=O)c5ccc(NCCSc6ccccc6)c([N+](=O)[O-])c5)cc4)CC3)cc(OC(C)C)c2)c1 [B2Q057-01, 4-[4-[[3-(3-Ethoxyphenyl)-5-propan-2-yloxyphenyl]methyl]piperazin-1-yl]-N-[3-nitro-4-(2-phenylsulfanylethylamino)phenyl]sulfonylbenzamide]

Compound: 4-[4-[5-[2-(5-Ethoxypyridin-3-yl)ethynyl]pyridine-3-carbonyl]piperazin-1-yl]-N-propylbenzamide [B1M057-01]
ASMS ratio (%) n = 1 [1]: −0.7% | ASMS ratio (%) n = 2 [1]: 1.4%

ASMS ratio (%) (n = 1): 0.0% | ASMS ratio (%) (n = 2): 0.0%
Compound: CCOc1cccc(-c2ccc(CN3CCN(c4ccc(C(=O)NS(=O)(=O)CCC(F)(F)F)cc4)CC3)cc2F)c1 [B2N051-01, 4-[4-[[4-(3-Ethoxyphenyl)-3-fluorophenyl]methyl]piperazin-1-yl]-N-(3,3,3-trifluoropropylsulfonyl)benzamide]

ASMS ratio (%) n = 1 [1]: 2.2% | ASMS ratio (%) n = 2 [1]: −3.1%
Compound: CCCNC(=O)c1ccc(N2CCN(Cc3ccccc3-c3cncc(OCC)c3)CC2)nn1 [B1M043-01]

ASMS ratio (%) n = 1 (AS-MS, mixture library, Bcl-2): 0.0%
Compound: CCOc1cccc(-c2csc(C(=O)N3CCN(c4ccc(C(=O)NS(C)(=O)=O)nn4)CC3)c2)c1 [B2I001-01, 6-[4-[4-(3-Ethoxyphenyl)thiophene-2-carbonyl]piperazin-1-yl]-N-methylsulfonylpyridazine-3-carboxamide]

ASMS ratio (%) n = 1 (AS-MS, mixture library, Bcl-2): 0.0% | ASMS ratio (%) n = 2 (AS-MS, mixture library, Bcl-2): 0.0%
Compound: CCOc1cccc(-c2csc(C(=O)N3CCN(c4ccc(C(=O)NS(C)(=O)=O)cc4)CC3)c2)c1 [B2I023-01, 4-[4-[4-(3-Ethoxyphenyl)thiophene-2-carbonyl]piperazin-1-yl]-N-methylsulfonylbenzamide]

ASMS ratio (%) (n = 1): 0.0% | ASMS ratio (%) (n = 2): 0.0%
Compound: CCOc1cccc(-c2ccc(CN3CCN(c4ccc(C(=O)NS(=O)(=O)CCC(F)(F)F)nn4)CC3)cc2C)c1 [B2N073-01, 6-[4-[[4-(3-Ethoxyphenyl)-3-methylphenyl]methyl]piperazin-1-yl]-N-(3,3,3-trifluoropropylsulfonyl)pyridazine-3-carboxamide]

ASMS ratio (%) n = 1 [2]: 6.3% | ASMS ratio (%) n = 2 [2]: −1.4%
Compound: CCOc1cncc(-c2ccc(CN3CCN(c4ccc(C(=O)Nc5ccc(OC)cc5)nn4)CC3)c3ccccc23)c1 [B1O092-01, 6-[4-[[4-(5-Ethoxypyridin-3-yl)naphthalen-1-yl]methyl]piperazin-1-yl]-N-(4-methoxyphenyl)pyridazine-3-carboxamide]

ASMS ratio (%) (n = 1): 0.0% | ASMS ratio (%) (n = 2): 0.0%
Compound: CCOc1cncc(-c2csc(CN3CCN(c4ccc(C(=O)NS(C)(=O)=O)cc4)CC3)c2)c1 [B2I068-01]

ASMS ratio (%) n = 1 [1]: 0.0% | ASMS ratio (%) n = 2 [1]: 0.0%
Compound: CCOc1cncc(C#Cc2ccccc2C(=O)N2CCN(c3ccc(C(=O)NCC(F)(F)F)nn3)CC2)c1 [B1K008-01, 6-[4-[2-[2-(5-Ethoxypyridin-3-yl)ethynyl]benzoyl]piperazin-1-yl]-N-(2,2,2-trifluoroethyl)pyridazine-3-carboxamide]

ASMS ratio (%) n = 1 [2]: 0.0% | ASMS ratio (%) n = 2 [2]: 2.3%
Compound: CCOc1cncc(C#Cc2cncc(C(=O)N3CCN(c4ccc(C(=O)N(CC)CC)nn4)CC3)c2)c1 [B4J010-01, 6-[4-[5-[2-(5-Ethoxypyridin-3-yl)ethynyl]pyridine-3-carbonyl]piperazin-1-yl]-N,N-diethylpyridazine-3-carboxamide]

ASMS ratio (%) (n = 1): 3.4% | ASMS ratio (%) (n = 2): −9.0%
Compound: CCOc1cccc(-c2cnn(-c3cc(C(=O)N4CCN(c5ccc(C(=O)NS(=O)(=O)c6ccc(NCCSc7ccccc7)c(C(F)(F)F)c6)cc5)CC4)cc(C(F)(F)F)c3)c2)c1 [B2R043-01, 4-[4-[3-[4-(3-Ethoxyphenyl)pyrazol-1-yl]-5-(trifluoromethyl)benzoyl]piperazin-1-yl]-N-[4-(2-phenylsulfanylethylamino)-3-(trifluoromethyl)phenyl]sulfonylbenzamide]

ASMS ratio (%) (n = 1): 12.3% | ASMS ratio (%) (n = 2): 18.5%
Compound: CCOc1cccc(C#Cc2ccccc2CN2CCN(c3ccc(C(=O)NS(=O)(=O)c4ccc(NCCSc5ccccc5)c(C(F)(F)F)c4)cc3)CC2)c1 [B2R069-01, 4-[4-[[2-[2-(3-Ethoxyphenyl)ethynyl]phenyl]methyl]piperazin-1-yl]-N-[4-(2-phenylsulfanylethylamino)-3-(trifluoromethyl)phenyl]sulfonylbenzamide]

Compound: 4-[4-[3-[2-(3-Ethoxyphenyl)ethynyl]-5-(trifluoromethyl)benzoyl]piperazin-1-yl]-N-propylbenzamide [B1M014-01]
ASMS ratio (%) n = 1 [1]: 4.1% | ASMS ratio (%) n = 2 [1]: 0.4%

ASMS ratio (%) (n = 1): −0.3% | ASMS ratio (%) (n = 2): 0.2%
Compound: CCOc1cccc(-c2ccccc2CN2CCN(c3ccc(C(=O)NS(C)(=O)=O)cc3)CC2)c1 [B2I045-01, 4-[4-[[2-(3-Ethoxyphenyl)phenyl]methyl]piperazin-1-yl]-N-methylsulfonylbenzamide]
